pEC50: −log10 of the molar value. ≈ marks a conversion by molar mass, not a printed value.
Tests used:
[1] = Bocillin-FL fluorescence polarization competition binding assay, A. baumannii PBP3; settings: fluorescence polarization competition binding assay using Bocillin-FL; column 3; read-out: 4. baumannii PBP1a Potency
Source text: (§1) Example I: Experimental Method for Penicillin-Binding Protein Binding Assays with Bocillin-FL Via Fluorescence Polarization
(§2) To determine the ability of boronic acid-based test PBP inhibitors to bind Penicillin Binding Proteins (PBPs), Bocillin-FL (fluorescently-labeled penicillin V; ThermoFisher Scientific) was used in a fluorescence polarization (FP) competition binding assay to assess inhibitor binding to PBP2, PBP3 or PBP4 from Escherichia coli (K12), PBP3 from Pseudomonas aeruginosa (PA01), PBP1a, PBP2 and PBP3 from Acinetobacter baumannii (ATCC 19606), and PBP2 from Neiserria gonorrheae (FA19). PBPs were cloned and purified as described previously (E. coli PBPs, King, D. T, et al., ACS Infectious Diseases 2015, 1, 175-184; P. aeruginosa PBP3, Han et. al., PNAS 2010, 107 (51), 22002-22007; A. baumannii PBPs, Penwell et. al., Antimicrob. Agents Chemother. 2015, 59 (3), 1680-1689; N. gonorrhoeae PBP2, Singh et. al., J Biol. Chem. 2019, 294 (38), 14020-14032). To establish assay conditions for competition binding, enzyme titration/saturation binding experiments were initially performed. Bocillin-FL was prepared at 0.2 μM in a buffer comprised of 50 mM Hepes (pH 8.0), 300 mM NaCl and 5% (v/v) glycerol for reactions with E. coli, P. aeruginosa and N. gonorrhoeae PBPs, and 25 mM Tris (pH 8.0), 200 mM NaCl and 10% (v/v) glycerol and 0.005% (v/v) Tween 20 for reactions with A. baumannii PBPs. Saturation binding was performed by mixing 40 μl of PBP solutions ranging in concentrations from 0-24 μM with 40 μl of the 0.2 μM Bocillin-FL solution, in individual wells of a black 384-well microplate. FP was measured immediately upon mixing (Excitation, 490 nm; Emission, 520 nm; g-factor, 0.96), using a Cytation3 (BioTek) microplate reader and measured continuously for up to 120 minutes. […] The competition binding assay (80 μl final volume) was validated using beta-lactams and PBPs at final concentrations of: 1.5 μM, E. coli PBP3; 0.75 μM, P. aeruginosa PBP3; 1 μM A. baumannii PBP1a; 2.5 μM A. baumannii PBP2; 0.2 μM A. baumannii PBP3; and […] N. gonorrhoeae PBP2. Bocillin-FL was at 0.1 μM (0.05 μM with A. baumannii PBP1a) and beta-lactam concentrations ranged from 0-1000 μM. […] Bocillin-FL was added and the FP immediately measured for up to 60 minutes (90 minutes for E. coli PBP2). […] The beta-lactam potency was reported as the concentration of beta-lactam required to reduce the amount of PBP bound-Bocillin-FL by 50% (EC50). […] Binding assays for boronic acid PBP inhibitors were performed in an identical fashion for the respective PBPs

[2] = system: E. coli AG100A; experiment: Broth microdilution MIC in CAMHB; assay type: cell-based; settings: Escherichia coli, read-out: Minimum Inhibitory Concentration, E. coli AG100A
Method in brief: (§3)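 Colonies from cation-adjusted Mueller Hinton agar are grown in broth (3-5 h, 37° C), adjusted by OD600, and added at 2-8×10^5 CFU/mL to 2-fold compound dilutions. After 16-20 h at 37° C, the lowest concentration without growth is taken as MIC.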

[3] = system: E. coli AG100; experiment: Broth microdilution MIC in CAMHB; assay type: cell-based; settings: Escherichia coli; E. coli AG100 (wild-type parent); MHB; read-out: Minimum Inhibitory Concentration, E. coli AG100
Method in brief: as §3

[4] = system: K. pneumoniae SI-117 producing VIM-1; experiment: Broth microdilution MIC in CAMHB; assay type: cell-based; settings: Klebsiella pneumoniae, read-out: Minimum Inhibitory Concentration, K. pneumoniae SI-117
Method in brief: as §3

[5] = system: E. coli ATCC 25922; experiment: Broth microdilution MIC in CAMHB; assay type: cell-based; settings: Escherichia coli, ATCC25922; E. coli ATCC 25922; MHB; read-out: Minimum Inhibitory Concentration, E. coli 25922
Method in brief: as §3

[6] = system: K. pneumoniae 848844 producing SHV-11 and KPC-2; experiment: Broth microdilution MIC in CAMHB; assay type: cell-based; settings: Klebsiella pneumoniae, read-out: Minimum Inhibitory Concentration, K. pneumoniae 848844
Method in brief: as §3

[7] = system: P. aeruginosa ATCC 27853; experiment: Broth microdilution MIC in CAMHB; assay type: cell-based; settings: Pseudomonas aeruginosa, ATCC27853; MHB; read-out: Minimum Inhibitory Concentration, P. aeruginosa ATCC 27853
Method in brief: as §3

[8] = system: E. coli 901C; experiment: Broth microdilution MIC in CAMHB; assay type: cell-based; settings: Escherichia coli; E. coli 901C (hyper-permeable); MHB; read-out: Minimum Inhibitory Concentration, E. coli 901C
Method in brief: as §3

[9] = system: A. baumannii ATCC 19606; experiment: Broth microdilution MIC in CAMHB; assay type: cell-based; settings: Acinetobacter baumannii, ATCC19606; MHB; read-out: Minimum Inhibitory Concentration, A. baumannii ATCC 19606
Method in brief: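 MIC, read by eye, is the lowest compound concentration giving no bacterial growth after 16-20 h at 37° C. Test compounds are serially diluted 2-fold in CAMHB and seeded with 2-8×10^5 CFU/mL of bacteria taken from a 3-5 h shaking culture, following CLSI methods.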

[10] = system: K. pneumoniae UMM producing SHV-5 and KPC-2; experiment: Broth microdilution MIC in CAMHB; assay type: cell-based; settings: Klebsiella pneumoniae, read-out: Minimum Inhibitory Concentration, K. pneumoniae UMM
Method in brief: as §3

[11] = system: P. aeruginosa (ΔmexAB-oprM); experiment: Broth microdilution MIC in CAMHB; assay type: cell-based; settings: Pseudomonas aeruginosa, read-out: Minimum Inhibitory Concentration, P. aeruginosa ΔmexAB-OprM
Method in brief: as §3

[12] = system: P. aeruginosa ATCC 35151; experiment: Broth microdilution MIC in CAMHB; assay type: cell-based; settings: Pseudomonas aeruginosa, ATCC35151; MHB; hyper-permeable strain; read-out: Minimum Inhibitory Concentration, P. aeruginosa ATCC 35151
Method in brief: as §3

[13] = system: E. coli D22; experiment: Broth microdilution MIC in CAMHB; assay type: cell-based; settings: Escherichia coli; E. coli D22 (hyper-permeable); MHB; read-out: Minimum Inhibitory Concentration, E. coli D22
Method in brief: as §3

[14] = target: T1, P. aeruginosa PBP3 (Pseudomonas aeruginosa, UniProt G3XD46); experiment: Bocillin-FL fluorescence polarization competition binding assay, P. aeruginosa PBP3; settings: fluorescence polarization competition binding assay using Bocillin-FL
T1 construct: made in house
Method in brief: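 Binding of boronic acid inhibitors to purified Pseudomonas aeruginosa (PA01) PBP3 was measured by fluorescence polarization competition with Bocillin-FL, a fluorescent penicillin V. Reactions of 80 μl contained 0.75 μM PBP3 and 0.1 μM Bocillin-FL in 50 mM Hepes (pH 8.0), 300 mM NaCl and 5% (v/v) glycerol, in black 384-well plates. FP (Excitation 490 nm, Emission 520 nm) was read for up to 60 minutes. EC50 is the concentration that halves PBP-bound Bocillin-FL.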

[15] = target: T2, E. coli K12 PBP3 (Escherichia coli, UniProt P0AD68); experiment: biochemical; assay type: binding
T2 construct: made in house
Method in brief: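 Fluorescence polarization (ex 490/em 520 nm) competition of inhibitors against Bocillin-FL at 0.1 μM, read up to 60 min. Final PBP levels: E. coli PBP3 1.5 μM; A. baumannii PBP2 2.5 μM, PBP3 0.2 μM in Tris pH 8.0/NaCl/glycerol/Tween 20; N. gonorrhoeae PBP2 […] in Hepes pH 8.0/NaCl/glycerol. EC50 = concentration halving PBP-bound Bocillin-FL.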

[16] = target: T3, N. gonorrhoeae PBP2 (Neisseria gonorrhoeae, UniProt P08149); experiment: Bocillin-FL fluorescence polarization competition binding assay, N. gonorrhoeae PBP2; settings: N. gonorrhoeae PBP2; assay validation with beta-lactams; read-out: EC50 (concentration of beta-lactam required to reduce the amount of PBP bound-Bocillin-FL by 50%)
T3 construct: made in house
Source text: as §1, §2

T1 sequence (G3XD46 whole entry): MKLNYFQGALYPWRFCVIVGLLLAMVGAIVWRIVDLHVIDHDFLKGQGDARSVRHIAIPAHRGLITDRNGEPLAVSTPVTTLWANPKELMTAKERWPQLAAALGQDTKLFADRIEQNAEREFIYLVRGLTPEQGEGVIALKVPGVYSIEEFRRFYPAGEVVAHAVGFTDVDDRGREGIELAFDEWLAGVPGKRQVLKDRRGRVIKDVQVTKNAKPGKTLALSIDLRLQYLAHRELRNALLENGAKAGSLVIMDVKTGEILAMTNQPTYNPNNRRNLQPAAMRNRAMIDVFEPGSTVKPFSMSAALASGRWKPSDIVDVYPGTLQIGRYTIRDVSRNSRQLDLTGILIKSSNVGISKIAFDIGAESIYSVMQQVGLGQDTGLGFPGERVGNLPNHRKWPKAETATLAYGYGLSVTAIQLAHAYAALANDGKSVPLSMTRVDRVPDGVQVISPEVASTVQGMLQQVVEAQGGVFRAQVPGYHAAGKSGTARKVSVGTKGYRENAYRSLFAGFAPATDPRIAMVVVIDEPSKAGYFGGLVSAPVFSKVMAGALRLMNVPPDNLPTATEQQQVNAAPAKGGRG
T2 sequence (P0AD68 1-577): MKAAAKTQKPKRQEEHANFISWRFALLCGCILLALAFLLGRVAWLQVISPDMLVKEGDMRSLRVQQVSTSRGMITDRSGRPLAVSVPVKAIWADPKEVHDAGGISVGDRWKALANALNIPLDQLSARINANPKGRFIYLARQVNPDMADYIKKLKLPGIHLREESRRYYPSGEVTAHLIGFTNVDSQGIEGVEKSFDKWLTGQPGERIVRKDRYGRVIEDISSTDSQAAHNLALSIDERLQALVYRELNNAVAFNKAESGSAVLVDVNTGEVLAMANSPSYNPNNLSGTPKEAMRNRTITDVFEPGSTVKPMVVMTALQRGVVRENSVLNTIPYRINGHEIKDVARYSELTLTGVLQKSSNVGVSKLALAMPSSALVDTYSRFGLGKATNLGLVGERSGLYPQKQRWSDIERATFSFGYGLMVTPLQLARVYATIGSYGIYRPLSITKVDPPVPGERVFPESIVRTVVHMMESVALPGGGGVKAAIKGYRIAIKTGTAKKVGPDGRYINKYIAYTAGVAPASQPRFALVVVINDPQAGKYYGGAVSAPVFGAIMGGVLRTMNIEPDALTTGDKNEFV
T3 sequence (P08149 whole entry): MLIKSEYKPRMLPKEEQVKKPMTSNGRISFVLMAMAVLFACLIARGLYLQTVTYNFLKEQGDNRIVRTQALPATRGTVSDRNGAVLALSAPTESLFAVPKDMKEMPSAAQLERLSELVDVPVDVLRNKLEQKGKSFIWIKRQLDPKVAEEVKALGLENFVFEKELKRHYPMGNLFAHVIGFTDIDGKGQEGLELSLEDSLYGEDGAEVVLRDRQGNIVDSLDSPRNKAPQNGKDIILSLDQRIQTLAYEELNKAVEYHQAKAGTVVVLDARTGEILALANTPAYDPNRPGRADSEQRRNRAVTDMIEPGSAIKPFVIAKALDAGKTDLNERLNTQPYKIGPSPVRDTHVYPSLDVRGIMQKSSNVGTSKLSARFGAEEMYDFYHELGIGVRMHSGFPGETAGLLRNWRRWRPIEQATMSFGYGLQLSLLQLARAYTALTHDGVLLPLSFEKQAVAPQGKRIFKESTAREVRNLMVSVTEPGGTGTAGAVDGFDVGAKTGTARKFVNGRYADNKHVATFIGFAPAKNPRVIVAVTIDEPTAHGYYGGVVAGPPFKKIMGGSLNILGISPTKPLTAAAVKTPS

SMILES | pEC50 [1] | MIC [2] | MIC [3] | MIC [4] | MIC [5] | MIC [6] | MIC [7] | MIC [8] | MIC [9] | MIC [10] | MIC [11] | MIC [12] | MIC [13] | P. aeruginosa PBP3 Potency [14] | pEC50 [15] | pEC50 [16]
NCCCN1CCN(C(=O)N[C@@H](C(=O)N[C@H]2Cc3ccc(F)c(C(=O)O)c3OB2O)c2ncc(O)cc2F)C(=O)C1=O [Example 16, (R)-3-((R)-2-(4-(3-aminopropyl)-2,3-dioxopiperazine-1-carboxamido)-2-(3-fluoro-5-hydroxypyridin-2-yl)acetamido)-7-fluoro-2-hydroxy-3,4-dihydro-2H-benzo[e][1,2]oxaborinine-8-carboxylic acid] | 4.00 to 4.52 | 8 to 16 µg/mL (≈ 13.6 to 27.1 µM) | 8 to 16 µg/mL (≈ 13.6 to 27.1 µM) | 32 to 64 µg/mL (≈ 54.2 to 108 µM) | 8 to 16 µg/mL (≈ 13.6 to 27.1 µM) | 32 to 64 µg/mL (≈ 54.2 to 108 µM) | 32 to 64 µg/mL (≈ 54.2 to 108 µM) | 2 to 4 µg/mL (≈ 3.39 to 6.78 µM) | > 128 µg/mL | 32 to 64 µg/mL (≈ 54.2 to 108 µM) | 8 to 16 µg/mL (≈ 13.6 to 27.1 µM) | < 0.25 µg/mL | 2 to 4 µg/mL (≈ 3.39 to 6.78 µM) | D (D represents a potency <10 μM) | > 4.52 | 
C[C@H]1CN(CCN)C(=O)C(=O)N1C(=O)N[C@@H](C(=O)N[C@H]1Cc2cccc(C(=O)O)c2OB1O)c1ncc(O)cc1F [Example 14, (R)-3-((R)-2-((S)-4-(2-aminoethyl)-6-methyl-2,3-dioxopiperazine-1-carboxamido)-2-(3-fluoro-5-hydroxypyridin-2-yl)acetamido)-2-hydroxy-3,4-dihydro-2H-benzo[e][1,2]oxaborinine-8-carboxylic acid] | > 5.00 | 0.5 to 1 µg/mL (≈ 0.874 to 1.75 µM) | 8 to 16 µg/mL (≈ 14 to 28 µM) | 32 to 64 µg/mL (≈ 55.9 to 112 µM) | 8 to 16 µg/mL (≈ 14 to 28 µM) | 32 to 64 µg/mL (≈ 55.9 to 112 µM) | > 128 µg/mL | 0.5 to 1 µg/mL (≈ 0.874 to 1.75 µM) | > 128 µg/mL | 8 to 16 µg/mL (≈ 14 to 28 µM) | 8 to 16 µg/mL (≈ 14 to 28 µM) | 0.5 to 1 µg/mL (≈ 0.874 to 1.75 µM) | 2 to 4 µg/mL (≈ 3.49 to 6.99 µM) | D (D represents a potency <10 μM) | > 4.52 | 
NCCCN1CCN(C(=O)N[C@@H](C(=O)N[C@H]2Cc3cccc(C(=O)O)c3OB2O)c2ncc(O)cc2F)C(=O)C1=O [Example 13, (R)-3-((R)-2-(4-(3-aminopropyl)-2,3-dioxopiperazine-1-carboxamido)-2-(3-fluoro-5-hydroxypyridin-2-yl)acetamido)-2-hydroxy-3,4-dihydro-2H-benzo[e][1,2]oxaborinine-8-carboxylic acid] | > 5.00 | 0.5 to 1 µg/mL (≈ 0.874 to 1.75 µM) | 8 to 16 µg/mL (≈ 14 to 28 µM) | 8 to 16 µg/mL (≈ 14 to 28 µM) | 8 to 16 µg/mL (≈ 14 to 28 µM) | 32 to 64 µg/mL (≈ 55.9 to 112 µM) | 32 to 64 µg/mL (≈ 55.9 to 112 µM) | 0.5 to 1 µg/mL (≈ 0.874 to 1.75 µM) | > 128 µg/mL | 8 to 16 µg/mL (≈ 14 to 28 µM) | 2 to 4 µg/mL (≈ 3.49 to 6.99 µM) | < 0.25 µg/mL | 2 to 4 µg/mL (≈ 3.49 to 6.99 µM) | D (D represents a potency <10 μM) | > 4.52 | 
C=CC1=C(C(=O)O)N2C(=O)[C@@H](NC(=O)/C(=N\OCC(=O)O)c3csc(N)n3)[C@H]2SC1 [cefixime, reference compound] |  |  |  |  |  |  |  |  |  |  |  |  |  |  |  | 6.59

— patent US20230114728A1 (Venatorx Pharmaceuticals, Inc., priority 2019, published 2023)
